Laboratory results: ChEMBL document CHEMBL3784938, “Novel heterocyclic ring-fused oleanolic acid derivatives as osteoclast inhibitors for osteoporosis” (Medchemcomm, 2016)

Key:
RAW264.7 [1] = test: Antiosteoclast activity in mouse RAW264.7 cells assessed as inhibition of RANKL-induced osteoclast differentiation at 2 uM after 5 days by TRAP assay; type: functional; conditions: RAW264.7, 120 h
RAW264.7 [2] = test: Antiosteoclast activity in mouse RAW264.7 cells assessed as inhibition of RANKL-induced osteoclast differentiation at 20 uM after 5 days by TRAP assay; type: functional; conditions: RAW264.7, 120 h

For `CC1(C)CC[C@]2(C(=O)NC3CCN(Cc4ccccc4)CC3)CC[C@]3(C)C(=CC[C@@H]4[C@@]5(C)Cc6cn(S(=O)(=O)c7ccc(OC(F)(F)F)cc7)nc6C(C)(C)[C@@H]5CC[C@]43C)[C@@H]2C1`, the inhibition at 2 µM (RAW264.7 [1]) was 2.2% and the inhibition at 20 µM (RAW264.7 [2]) was 71.9%.

For `CC1(C)CC[C@]2(C(=O)NCc3ccccc3)CC[C@]3(C)C(=CC[C@@H]4[C@@]5(C)Cc6cnoc6C(C)(C)[C@@H]5CC[C@]43C)[C@@H]2C1`, the inhibition at 2 µM (RAW264.7 [1]) was 27.3% and the inhibition at 20 µM (RAW264.7 [2]) was 69.3%.

`CC1(C)CC[C@]2(C(=O)NCc3ccccc3)CC[C@]3(C)C(=CC[C@@H]4[C@@]5(C)Cc6c[nH]nc6C(C)(C)[C@@H]5CC[C@]43C)[C@@H]2C1` showed an inhibition at 2 µM (RAW264.7 [1]) of 67.7% and an inhibition at 20 µM (RAW264.7 [2]) of 100%.

`CC1(C)CC[C@]2(C(=O)NCCCN3CCOCC3)CC[C@]3(C)C(=CC[C@@H]4[C@@]5(C)Cc6cn(S(=O)(=O)c7ccc(F)cc7)nc6C(C)(C)[C@@H]5CC[C@]43C)[C@@H]2C1` showed an inhibition at 2 µM (RAW264.7 [1]) of 56.1% and an inhibition at 20 µM (RAW264.7 [2]) of 97.7%.

`CC1(C)CC[C@]2(C(=O)NCCCN3CCOCC3)CC[C@]3(C)C(=CC[C@@H]4[C@@]5(C)Cc6cn(S(=O)(=O)c7ccc(OC(F)(F)F)cc7)nc6C(C)(C)[C@@H]5CC[C@]43C)[C@@H]2C1` was tested, and the inhibition at 2 µM (RAW264.7 [1]) was 31.8% and the inhibition at 20 µM (RAW264.7 [2]) was 86.3%.

In the case of `CC1(C)CC[C@]2(C(=O)NCCN3CCCCC3)CC[C@]3(C)C(=CC[C@@H]4[C@@]5(C)Cc6cn(S(=O)(=O)c7ccc(Cl)cc7)nc6C(C)(C)[C@@H]5CC[C@]43C)[C@@H]2C1`, the inhibition at 2 µM (RAW264.7 [1]) is reported as 0.9% and the inhibition at 20 µM (RAW264.7 [2]) is reported as 100%.

Work on `CC1(C)CC[C@]2(C(=O)NCCN3CCCCC3)CC[C@]3(C)C(=CC[C@@H]4[C@@]5(C)Cc6cnoc6C(C)(C)[C@@H]5CC[C@]43C)[C@@H]2C1` yielded an inhibition at 2 µM (RAW264.7 [1]) of 78.5% and an inhibition at 20 µM (RAW264.7 [2]) of 100%.

In the case of `CC1(C)CC[C@]2(C(=O)NCCCN3CCOCC3)CC[C@]3(C)C(=CC[C@@H]4[C@@]5(C)Cc6cnoc6C(C)(C)[C@@H]5CC[C@]43C)[C@@H]2C1`, the inhibition at 2 µM (RAW264.7 [1]) is reported as 23.2% and the inhibition at 20 µM (RAW264.7 [2]) is reported as 45.9%.

In the case of `Cc1cccc(S(=O)(=O)n2cc3c(n2)C(C)(C)[C@@H]2CC[C@]4(C)[C@H](CC=C5[C@@H]6CC(C)(C)CC[C@]6(C(=O)NCCN6CCCCC6)CC[C@]54C)[C@@]2(C)C3)c1`, the inhibition at 2 µM (RAW264.7 [1]) is reported as 33.6% and the inhibition at 20 µM (RAW264.7 [2]) is reported as 100%.

`CC1(C)CC[C@]2(C(=O)O)CC[C@]3(C)C(=CC[C@@H]4[C@@]5(C)CC[C@H](O)C(C)(C)[C@@H]5CC[C@]43C)[C@@H]2C1` [OLEANOLIC_ACID] was tested, and the inhibition at 2 µM (RAW264.7 [1]) was 11.4% and the inhibition at 20 µM (RAW264.7 [2]) was 82.1%.

`Cn1cc2c(n1)C(C)(C)[C@@H]1CC[C@]3(C)[C@H](CC=C4[C@@H]5CC(C)(C)CC[C@]5(C(=O)NCc5ccccc5)CC[C@]43C)[C@@]1(C)C2` showed an inhibition at 2 µM (RAW264.7 [1]) of 76% and an inhibition at 20 µM (RAW264.7 [2]) of 99.7%.

Compound `CC1(C)CC[C@]2(C(=O)NC3CCN(Cc4ccccc4)CC3)CC[C@]3(C)C(=CC[C@@H]4[C@@]5(C)Cc6cn(S(=O)(=O)c7ccc(Br)cc7)nc6C(C)(C)[C@@H]5CC[C@]43C)[C@@H]2C1` has an inhibition at 2 µM (RAW264.7 [1]) of 20.3% and an inhibition at 20 µM (RAW264.7 [2]) of 19.6%.

`CC1(C)CC[C@]2(C(=O)NC3CCN(Cc4ccccc4)CC3)CC[C@]3(C)C(=CC[C@@H]4[C@@]5(C)Cc6cn(S(=O)(=O)c7ccc(C(F)(F)F)cc7)nc6C(C)(C)[C@@H]5CC[C@]43C)[C@@H]2C1` was tested, and the inhibition at 2 µM (RAW264.7 [1]) was 83.6% and the inhibition at 20 µM (RAW264.7 [2]) was 82.1%.

In the case of `CC1(C)CC[C@]2(C(=O)NCCCN3CCOCC3)CC[C@]3(C)C(=CC[C@@H]4[C@@]5(C)Cc6cn(S(=O)(=O)c7ccc(Cl)cc7)nc6C(C)(C)[C@@H]5CC[C@]43C)[C@@H]2C1`, the inhibition at 2 µM (RAW264.7 [1]) is reported as 20.6% and the inhibition at 20 µM (RAW264.7 [2]) is reported as 56.1%.

`CC1(C)CC[C@]2(C(=O)NC3CCN(Cc4ccccc4)CC3)CC[C@]3(C)C(=CC[C@@H]4[C@@]5(C)Cc6cn(S(=O)(=O)c7ccc(F)cc7)nc6C(C)(C)[C@@H]5CC[C@]43C)[C@@H]2C1` showed an inhibition at 2 µM (RAW264.7 [1]) of 73% and an inhibition at 20 µM (RAW264.7 [2]) of 82.9%.

`CC1(C)CC[C@]2(C(=O)NC3CCN(Cc4ccccc4)CC3)CC[C@]3(C)C(=CC[C@@H]4[C@@]5(C)Cc6c[nH]nc6C(C)(C)[C@@H]5CC[C@]43C)[C@@H]2C1` showed an inhibition at 2 µM (RAW264.7 [1]) of 88.6% and an inhibition at 20 µM (RAW264.7 [2]) of 100%.
